{
  "source": "patent US20240325433A1",
  "about": "“MOLECULAR ASSOCIATION OF BILE ACID OR BILE SALT AND PHARMACEUTICAL COMPOSITION COMPRISING SAME FOR LOCALLY REDUCING FAT” (SCAI THERAPEUTICS CO., LTD., priority 2021, published 2024)",
  "key": {"[1]": {"test_system": "dermis white adipose tissue", "test": "SD rat skin penetration test: histological analysis (H&E, Masson's trichome staining)", "assay_type": "in vivo, SD rats", "settings": "1%, 500 μL subcutaneous injection", "from_the_text": "The interscapular region (back of the neck near the ear) of 10-week-old SD rats (280-350 g) with sufficient subcutaneous adipose tissue was shaved and anesthetized. […].\nThen, tissues (skin, subcutaneous tissue) of the interscapular region were collected, fixed, and subjected to H&E staining and Masson's trichome staining. Tissue changes were investigated through microscopic observation."}, "3T3-L1 preadipocytes": {"test_system": "3T3-L1 preadipocytes", "test": "Preadipocyte cytotoxicity (cell counting kit-8)", "assay_type": "cell-based", "settings": "treated 4 hours", "method": "3T3-L1 preadipocytes were inoculated into a 96 well plate at 5×10^3 per well, grown in medium (high glucose DMEM, 10% bovine calf serum, 1% penicillin/streptomycin) for 16 hours. The drug was prepared to contain 0.04% and 0.08%, respectively, and then treated for 4 hours. After adding 10 μl of Dojingo CK04-11 cell counting kit-8 to each well according to the manual, reacting for 2 hours, the absorbance at 450 nm was measured with a spectrophotometer to compare preadipocyte cytotoxicity."}, "[2]": {"test": "SD rat skin penetration test: DCA distribution in subcutaneous tissue, skin and plasma", "set-up": "species or system SD rats", "settings": "in vivo, sc", "from_the_text": "The interscapular region (back of the neck near the ear) of 10-week-old SD rats (280-350 g) with sufficient subcutaneous adipose tissue was shaved and anesthetized."}, "[3]": {"settings": "cited from earlier work"}},
  "data": [
    {"smiles": "C[C@H](CCC(=O)O)[C@H]1CC[C@H]2[C@@H]3CC[C@@H]4C[C@H](O)CC[C@]4(C)[C@H]3C[C@H](O)[C@]12C", "note": "[deoxycholic acid]", "values": [
      {"measurement": "H&E staining: tissue change", "setting": "[1]", "value": "severe tissue damage was observed"},
      {"measurement": "Masson's trichome staining: tissue change", "setting": "[1]", "value": "hematoma and edema occurred in the tissue"},
      {"measurement": "preadipocyte cytotoxicity (comparison between materials)", "setting": "3T3-L1 preadipocytes; 0.04%", "value": "the same"},
      {"measurement": "survival rate of preadipocytes", "setting": "3T3-L1 preadipocytes; 0.08%, absorbance 450 nm", "value": 24.6, "unit": "%"},
      {"measurement": "amount of DCA in subcutaneous tissue", "setting": "[2]", "value": "gradually decreased"},
      {"measurement": "solubility in water", "setting": "[3]", "value": 0.024, "unit": "%"}
    ]}
  ]
}
